Structures can show the parent of a compound that is named as a salt.
What follows are compounds tested against human ALK5 (Homo sapiens (Human), UniProt P36897) (assay: ADP-GLO Kinases assay, ALK5 enzymatic activity). Conditions: purified recombinant human ALK5 2.6 nM, TGFβ1 peptide 94.5 μM, ATP 0.83 μM, 120 min, 25° C.; pIC50 converted to pKi using the Cheng-Prusoff equation.
Format: biochemical
Experimental: The enzymatic activity of compounds of the present invention was monitored measuring the formation of ADP using the ADP-GLO Kinases assay. Following the incubation of the purified enzyme, a substrate and ATP, the produced ADP was converted into ATP, which in turn was converted into light by Ultra-Glo Luciferase. The luminescent signal positively correlated with ADP amount and kinase activity. Briefly, the kinase reaction was performed by incubating 2.6 nM of the purified, commercially available human ALK5 (recombinant TGF β1 N-term GST-tagged, 80-end), a final concentration of TGFβ1 peptide 94.5 μM (Promega, T36-58) and ultra-pure ATP (Promega V915B). The ATP concentration was set at the Km value (concentration of substrate which permits the enzyme to achieve half maximal velocity (Vmax)) of ALK5 (0.5 μM). Compound and ALK5 kinase were mixed and incubated for 15 min. Reactions were initiated by addition of ATP at a final concentration in the assay of 0.83 μM. After an incubation of 120 min, the reaction was stopped, and ADP production detected with ADP-Glo kit according to manufacturer's indications. All reaction and incubation steps were performed at 25° C. and the assays were performed in 384-well format and validated using a selection of reference compounds tested in 11-point concentration-response curve.
Results were expressed as pIC50 (negative logarithm of IC50) and subsequently converted to pKi (negative logarithm of […]) using the Cheng-Prusoff equation. The higher the value of pKi, the greater the inhibition of ALK5 activity.

Sequence of human ALK5 (P36897 80-503 limits assumed): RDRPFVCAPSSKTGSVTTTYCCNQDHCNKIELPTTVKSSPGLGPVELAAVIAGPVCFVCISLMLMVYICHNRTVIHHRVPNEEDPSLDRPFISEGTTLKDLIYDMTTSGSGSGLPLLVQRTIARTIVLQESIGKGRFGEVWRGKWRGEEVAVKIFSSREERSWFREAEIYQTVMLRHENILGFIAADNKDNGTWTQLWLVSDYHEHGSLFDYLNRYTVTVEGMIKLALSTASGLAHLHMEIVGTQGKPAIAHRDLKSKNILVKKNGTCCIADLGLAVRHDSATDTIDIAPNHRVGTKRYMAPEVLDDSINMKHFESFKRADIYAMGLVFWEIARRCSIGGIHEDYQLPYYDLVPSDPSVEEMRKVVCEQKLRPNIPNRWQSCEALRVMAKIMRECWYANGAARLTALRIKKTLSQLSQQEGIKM

Structure (SMILES)	Ki [nM]	ALK5 pKi
Cc1cccc(-c2nc3n(c2-c2ccc(F)c(NC(=O)CCN4CCN(C)CC4)c2)CCN3)n1 [Example 1, N-(2-fluoro-5-(6-(6-methylpyridin-2-yl)-2,3-dihydro-1H-imidazo[1,2-a]imidazol-5-yl)phenyl)-3-(4-methylpiperazin-1-yl)propanamide]	1.26 to 7.94	–
Cc1cccc(-c2nc3n(c2-c2ccc(F)c(NC(=O)CCN4CCCCC4)c2)CCN3)n1 [Example 2, N-(2-fluoro-5-(6-(6-methylpyridin-2-yl)-2,3-dihydro-1H-imidazo[1,2-a]imidazol-5-yl)phenyl)-3-(piperidin-1-yl)propanamide]	–	≥9.0
Cc1cccc(-c2nc3n(c2-c2ccc(F)c(NC(=O)CCN4CCN(CCO)CC4)c2)CCN3)n1 [Example 3, N-(2-fluoro-5-(6-(6-methylpyridin-2-yl)-2,3-dihydro-1H-imidazo[1,2-a]imidazol-5-yl)phenyl)-3-(4-(2-hydroxyethyl)piperazin-1-yl)propanamide]	1.26 to 7.94	–
Cc1cccc(-c2nc3n(c2-c2ccc(F)c(NC(=O)CCN4CCN(CC(F)(F)F)CC4)c2)CCN3)n1 [Example 4, N-(2-fluoro-5-(6-(6-methylpyridin-2-yl)-2,3-dihydro-1H-imidazo[1,2-a]imidazol-5-yl)phenyl)-3-(4-(2,2,2-trifluoroethyl)piperazin-1-yl)propanamide]	1.26 to 7.94	–
Cc1cccc(-c2nc3n(c2-c2ccc(F)c(NC(=O)CN(C)C)c2)CCN3)n1 [Example 5, 2-(Dimethylamino)-N-(2-fluoro-5-(6-(6-methylpyridin-2-yl)-2,3-dihydro-1H-imidazo[1,2-a]imidazol-5-yl)phenyl)acetamide]	10 to 31.6	–
Cc1cccc(-c2nc3n(c2-c2ccc(F)c(NC(=O)CN4CCN(C)CC4)c2)CCN3)n1 [Example 6, N-(2-fluoro-5-(6-(6-methylpyridin-2-yl)-2,3-dihydro-1H-imidazo[1,2-a]imidazol-5-yl)phenyl)-2-(4-methylpiperazin-1-yl)acetamide]	10 to 31.6	–
Cc1cccc(-c2nc3n(c2-c2ccc(F)c(NC(=O)CCCN4CCN(C)CC4)c2)CCN3)n1 [Example 7, N-(2-fluoro-5-(6-(6-methylpyridin-2-yl)-2,3-dihydro-1H-imidazo[1,2-a]imidazol-5-yl)phenyl)-4-(4-methylpiperazin-1-yl)butanamide]	1.26 to 7.94	–
CN1CCN(CCC(=O)Nc2cc(-c3c(-c4cc(Cl)ccc4F)nc4n3CCN4)ccc2F)CC1 [Example 8, N-(5-(6-(5-chloro-2-fluorophenyl)-2,3-dihydro-1H-imidazo[1,2-a]imidazol-5-yl)-2-fluorophenyl)-3-(4-methylpiperazin-1-yl)propanamide]	1.26 to 7.94	–
Cc1cccc(-c2nc3n(c2-c2ccc(F)c(NC(=O)CCN(C)C)c2)CCN3)n1 [Example 9, 3-(Dimethylamino)-N-(2-fluoro-5-(6-(6-methylpyridin-2-yl)-2,3-dihydro-1H-imidazo[1,2-a]imidazol-5-yl)phenyl)propanamide]	≤ 1	–
O=C(CCN1CCCCC1)Nc1cc(-c2c(-c3cc(Cl)ccc3F)nc3n2CCN3)ccc1F [Example 10, N-(5-(6-(5-chloro-2-fluorophenyl)-2,3-dihydro-1H-imidazo[1,2-a]imidazol-5-yl)-2-fluorophenyl)-3-(piperidin-1-yl)propanamide]	≤ 1	–
Cc1cccc(-c2nc3n(c2-c2ccc(F)c(NC(=O)CCCN4CCCCC4)c2)CCN3)n1 [Example 11, N-(2-fluoro-5-(6-(6-methylpyridin-2-yl)-2,3-dihydro-1H-imidazo[1,2-a]imidazol-5-yl)phenyl)-4-(piperidin-1-yl)butanamide]	1.26 to 7.94	–
Cc1cccc(-c2nc3n(c2-c2ccc(F)c(NC(=O)CCC[N+]4(C)CCCCC4)c2)CCN3)n1 [Example 12, 1-(4-((2-Fluoro-5-(6-(6-methylpyridin-2-yl)-2,3-dihydro-1H-imidazo[1,2-a]imidazol-5-yl)phenyl)amino)-4-oxobutyl)-1-methylpiperidin-1-ium chloride hydrochloride]	1.26 to 7.94	–
Cc1cccc(-c2nc3n(c2-c2ccc(F)c(NC4CCN(C(C)C)CC4)c2)CCN3)n1 [Example 13, N-(2-fluoro-5-(6-(6-methylpyridin-2-yl)-2,3-dihydro-1H-imidazo[1,2-a]imidazol-5-yl)phenyl)-1-isopropylpiperidin-4-amine]	10 to 31.6	–
Cc1cccc(-c2nc3n(c2-c2ccc(F)c(NCC4CCN(C)CC4)c2)CCN3)n1 [Example 14, 2-Fluoro-N-((1-methylpiperidin-4-yl)methyl)-5-(6-(6-methylpyridin-2-yl)-2,3-dihydro-1H-imidazo[1,2-a]imidazol-5-yl)aniline]	1.26 to 7.94	–

From patent US20250368650A1, “5-(4-FLUOROPHENYL)-2,3-DIHYDRO-1H-IMIDAZO[1,2-A]IMIDAZOLE DERIVATIVES AS ALK INHIBITORS FOR THE TREATMENT OF FIBROSIS” (CHIESI FARMACEUTICI S.P.A., priority 2022, published 2025)
